From US9693556B2, “Herbicidal pyridazinone derivatives” (SYNGENTA LIMITED, priority 2011, dated 2017)

Tests used:
Format in all cases: in vivo
[1] = tested on: Amaranthus retoflexus (AMARE); assay: Post-emergence herbicidal glasshouse test on Amaranthus retoflexus; settings: post-emergence; 1000 g/h; evaluated after 13 days
Method in brief: (§1)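 Scored on a five-point scale (1 = 0-19% to 5 = 80-100% damage) 13 days after treatment. Application rate 1000 g/h in acetone/water (50:50) containing 0.5% Tween 20, sprayed one day post-sowing for pre-emergence or eight days for post-emergence; glasshouse at 24/16° C, 14 h light, 65% humidity.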

[2] = tested on: Setaria faberi (SETFA); assay: Post-emergence herbicidal glasshouse test on Setaria faberi; settings: post-emergence; 1000 g/h; evaluated after 13 days
Method in brief: as §1

[3] = tested on: Echinochloa crus-galli (ECHCG); assay: Pre-emergence herbicidal glasshouse test on Echinochloa crus-galli; settings: pre-emergence; 1000 g/h; evaluated after 13 days
Method in brief: as §1

[4] = tested on: Setaria faberi (SETFA); assay: Pre-emergence herbicidal glasshouse test on Setaria faberi; settings: pre-emergence; 1000 g/h; evaluated after 13 days
Method in brief: as §1

[5] = tested on: Alopecurus myosuroides (ALOMY); assay: Post-emergence herbicidal glasshouse test on Alopecurus myosuroides; settings: post-emergence; 1000 g/h; evaluated after 13 days
Method in brief: as §1

[6] = tested on: Ipomoea hederacea (IPOHE); assay: Post-emergence herbicidal glasshouse test on Ipomoea hederacea; settings: post-emergence; 1000 g/h; evaluated after 13 days
Method in brief: as §1

[7] = tested on: Solanum nigrum (SOLNI); assay: Pre-emergence herbicidal glasshouse test on Solanum nigrum; settings: pre-emergence; 1000 g/h; evaluated after 13 days
Method in brief: as §1

[8] = tested on: Alopecurus myosuroides (ALOMY); assay: Pre-emergence herbicidal glasshouse test on Alopecurus myosuroides; settings: pre-emergence; 1000 g/h; evaluated after 13 days
Method in brief: as §1

[9] = tested on: Amaranthus retoflexus (AMARE); assay: Pre-emergence herbicidal glasshouse test on Amaranthus retoflexus; settings: pre-emergence; 1000 g/h; evaluated after 13 days
Method in brief: as §1

[10] = tested on: Echinochloa crus-galli (ECHCG); assay: Post-emergence herbicidal glasshouse test on Echinochloa crus-galli; settings: post-emergence; 1000 g/h; evaluated after 13 days
Method in brief: as §1

[11] = tested on: Solanum nigrum (SOLNI); assay: Post-emergence herbicidal glasshouse test on Solanum nigrum; settings: post-emergence; 1000 g/h; evaluated after 13 days
Method in brief: as §1

[12] = tested on: Ipomoea hederacea (IPOHE); assay: Pre-emergence herbicidal glasshouse test on Ipomoea hederacea; settings: pre-emergence; 1000 g/h; evaluated after 13 days
Method in brief: as §1

Structure (SMILES) | POST Application AMARE herbicidal damage (five point scale) [1] | POST Application SETFA herbicidal damage (five point scale) [2] | PRE Application ECHCG herbicidal damage (five point scale) [3] | PRE Application SETFA herbicidal damage (five point scale) [4] | POST Application ALOMY herbicidal damage (five point scale) [5] | POST Application IPOHE herbicidal damage (five point scale) [6] | PRE Application SOLNI herbicidal damage (five point scale) [7] | PRE Application ALOMY herbicidal damage (five point scale) [8] | PRE Application AMARE herbicidal damage (five point scale) [9] | POST Application ECHCG herbicidal damage (five point scale) [10] | POST Application SOLNI herbicidal damage (five point scale) [11] | PRE Application IPOHE herbicidal damage (five point scale) [12]
COCn1ncc(-c2ccc(S(C)(=O)=O)c(C3=NOCC3)c2C)c(O)c1=O [Compound 1.001] | 5 (5=80-100% damage) | 5 (5=80-100% damage) | 5 (5=80-100% damage) | 5 (5=80-100% damage) | 5 (5=80-100% damage) | 5 (5=80-100% damage) | 5 (5=80-100% damage) | 5 (5=80-100% damage) | 5 (5=80-100% damage) | 5 (5=80-100% damage) | 5 (5=80-100% damage) | 5 (5=80-100% damage)
Cn1ncc(-n2ccc(C(F)(F)F)c(-c3cccc(F)c3)c2=O)c(O)c1=O [Compound 7.012] | 5 (5=80-100% damage) | 5 (5=80-100% damage) | 5 (5=80-100% damage) | 5 (5=80-100% damage) | 5 (5=80-100% damage) | 5 (5=80-100% damage) | 5 (5=80-100% damage) | 5 (5=80-100% damage) | 5 (5=80-100% damage) | 5 (5=80-100% damage) | 5 (5=80-100% damage) | 1 (1=0-19% damage)
Cn1ncc(-c2ccc(S(C)(=O)=O)c(C3=NOCC3)c2Cl)c(O)c1=O [Compound 1.032] | 5 (5=80-100% damage) | 5 (5=80-100% damage) | 5 (5=80-100% damage) | 5 (5=80-100% damage) | 5 (5=80-100% damage) | 5 (5=80-100% damage) | 5 (5=80-100% damage) | 5 (5=80-100% damage) | 5 (5=80-100% damage) | 5 (5=80-100% damage) | 5 (5=80-100% damage) | 4 (4=60-79% damage)
Cc1c(-c2c(C3CC3)nn(C)c(=O)c2O)ccc(S(C)(=O)=O)c1C1=NOCC1 [Compound 2.019] | 5 (5=80-100% damage) | 4 (4=60-79% damage) | 5 (5=80-100% damage) | 2 (2=20-39% damage) | 5 (5=80-100% damage) | 5 (5=80-100% damage) | 5 (5=80-100% damage) | 4 (4=60-79% damage) | 5 (5=80-100% damage) | 4 (4=60-79% damage) | 5 (5=80-100% damage) | 4 (4=60-79% damage)
Cn1ncc(-c2ccc(C(F)(F)F)n(-c3cccc(C(F)(F)F)n3)c2=O)c(O)c1=O [Compound 9.001] | 3 (3=40-59% damage) | 4 (4=60-79% damage) | 2 (2=20-39% damage) | 1 (1=0-19% damage) | 4 (4=60-79% damage) | 1 (1=0-19% damage) | 1 (1=0-19% damage) | 3 (3=40-59% damage) | 2 (2=20-39% damage) | 4 (4=60-79% damage) | 4 (4=60-79% damage) | 1 (1=0-19% damage)
